Laboratory results published in patent US20050197286A1, “Method for control of depression using c terminal growth hormone (gh) fragment” (priority 2002, published 2005).
Entries after “also recorded” stand apart in the source; their conditions may differ.

Experiments:
[1] = system: patients suffering from growth hormone deficiency; conditions: several studies, references 1-24; cited from earlier work
[2] = system: obese adult male subjects; assay: Double-blind, placebo-controlled single intravenous dose study of AOD9604 (Example 1); format: in vivo, human
Procedure: The objective of this study was to characterise the safety, tolerability and pharmacodynamic effects of AOD9604 following single intravenous administration to obese adult male subjects. The study was performed by CMAX Pty Ltd under contract to Metabolic Pharmaceuticals Ltd.
The study was designed as a double-blind, placebo-controlled, 4×4 Williams Latin Square design, intravenous dose study included twenty four (obese Body mass index (BMI) of ≧35 kg/m^2 and a waist circumference of ≧110 cm) adult subjects with each subject receiving active study drug on each of three occasions and placebo on one occasion. Treatment allocation was randomised according to a Master Randomisation Schedule.
Subjects who provided written informed consent and who met all inclusion/exclusion criteria were randomised to receive each of the four treatments according to the study Master Randomisation Schedule. The subjects were randomised to receive a single dose of 25, 50 and 100 μg/kg AOD9604 and a single dose of placebo (5% mannitol solution) over the four periods of the study. Dose administration was by intravenous infusion, and was conducted over a period of 10 minutes.
During each in-clinic stay, blood samples were collected at specified times both prior to and following dose administration for the determination of pharmacodynamic parameters of non-esterified fatty acids (NEFA), glycerol, glucose and IGF-1. For the purposes of safety monitoring, the physical condition (physical examination, blood pressure, pulse, temperature and general well being) of the subjects was monitored both prior to and at specified intervals during each study period. ECG monitoring was performed prior to the infusion, at the end of the infusion and at specified times following the end of the infusion. Blood samples were also collected for assessment of haematological and biochemical parameters. Subjects were released from the clinic following the 24 hour post-dose blood sample and physical examination. Subjects returned to the clinic for the following period after a 7-day washout period. Within 14 days of the final period (Period 4), an Exit Evaluation was performed, involving the following assessments: physical examination (including ECG monitoring), body height and weight determination, vital sign measurements, questions regarding adverse events, collection of blood samples for the assessment of haematological and biochemical parameters, and collection of a urine sample for urinalysis and microscopy. A further 5 mL blood sample was collected and the serum stored for possible antibody analysis to be done at a later date.
Treatment A: A single dose of 25 μg/kg AOD9604 administered intravenously via an infusion pump over a 10 minute period.
Treatment B: A single dose of 50 μg/kg AOD9604 administered intravenously via an infusion pump over a 10 minute period.
Treatment C: A single dose of 100 μg/kg AOD9604 administered intravenously via an infusion pump over a 10 minute period.
Each subject received one of each of three doses of the active study drug, AOD9604 (25, 50, and 100 μg/kg) on three occasions and a placebo on one occasion. The doses were administered as intravenous infusions of 10 minute duration with a wash-out period of 7 days between each consecutive treatment. Subjects were not permitted to eat or drink anything, except for water, for at least 10 hours prior to and 2 hours following administration of the dose. Meals were timed in relation to the end of dosing, as follows: Snack (2 hours and 5 minutes), Lunch (4 hours and 5 minutes), Dinner (10 hours and 5 minutes) and Snack (13 hours and 5 minutes).

[3] = system: obese adult male subjects; assay: Double-blind single oral dose study of AOD9604 (Example 2, Phase 2A); format: in vivo, human
Source text: The objective of this study was to characterise the safety, tolerability, pharmacodynamic and pharmacokinetic effects of AOD9604 following single oral administration to obese adult male subjects.
The study was a double-blind, placebo controlled, 4×4 Williams Latin Square design, single oral dose study, planned to include 16 subjects. Each subject received active study drug on each of three occasions and placebo on one occasion. There was a washout period of 14 days between the doses administered in each study period.
Eligibility criteria were the same as for Example 1, except that the age range of the subjects was 35 to 60 years of age inclusive.
There were four study treatments, and each subject received each of the four treatments on four separate occasions, separated by a fourteen day wash out period. The dose strengths were as follows: • 10 mg (76.9 μg/kg for 130 kg subject); • 30 mg (230.8 μg/kg for 130 kg subject); • 60 mg (461.5 μg/kg for 130 kg subject); and • placebo.
The active pharmaceutical formulation was Size-0 capsules (Shionogi Qualicaps Co. Ltd.) of 10 mg AOD9604 containing 3.9% AOD9604, 84.1% Mannitol (USP) and 12% PEG3350, USP. Placebo capsules contained excipients only.
For each treatment, capsules were administered orally with 240 mL of room temperature water following at least a 12 hour overnight fast. Study personnel inspected the oral cavity to confirm that the subject has ingested the study treatment following each dose.
In the Phase 2A single dose intravenous trial, reported in Example 1, mild euphoria was reported by several patients who received drug and none who received placebo. The patients taking part in this single dose oral treatment were therefore asked to complete the Nottingham Health Profile questionnaire (see Wiklund I. (1990) The Nottingham Health Profile—a measure of health-related quality of life. Scand. J. Prim. Health Care Suppl. 1:15-8) before dose and 7 days after dose.

[4] = system: obese adult male subjects; assay: Double-blind multiple oral dose escalation study of AOD9604 (Example 3, Phase 2A); format: in vivo, human
Source text: The objective of this study was to characterise the safety and tolerability and the pharmacodynamic profile of AOD9604 following multiple oral administration to obese adult male subjects.
This was a double-blind, placebo-controlled, 3 period, oral dose, dose escalation study with randomization directed such that each subject received 7 doses of active study drug or placebo over one 7-day period, i.e. one dose per day for 7 days. There were up to three dose levels of AOD9604 and placebo studied in 3 cohorts of 12 subjects each. In each study period, 12 subjects were randomised so that 9 received active study drug and 3 received placebo. There was a period of 7 days between study periods to allow for appropriate safety review and permission to progress to the next dose level.
The eligibility criteria of subjects were as for Example 2, except that the age range was 18 to 60 years of age, and the BMI threshold was ≧30 kg/m^2, since the primary aim of the study was safety assessment. The restrictions on the subjects and the conduct of the study again were generally as in Example 2.
There were three study periods, and the dose strengths used were 10 mg, 30 mg, 60 mg and placebo, with seven doses per study period. The formulation of AOD9604 and placebo were as for Example 2.
For each treatment, capsules were administered orally every day for 7 days with 240 mL of room temperature water following at least a 12 hour overnight fast.
The patients were asked to complete the SF-36 Quality of Life Questionnaire (Ware J. J. and Sherbourne C. D. (1992) The MOS 36-item short-form health survey (SF-36). I. Conceptual framework and item selection. Medical Care; 30:473-83) at days 0, 8 and 14. The results are illustrated in FIG. 2, A and B and FIG. 3, A and B. The SF-36 questionnaire is different to the questionnaire used in the Phase 2A […] single dose trial of Example 2. SF-36 provides only positive numerical values for mood assessment, with higher values indicating greater happiness, and lower values indicating lower happiness. (The graphs in FIGS. 2 and 3 however do have some negative values because they are representing the change in mood from pre-treatment.) FIGS. 2 and 3 show a similar bell-shaped dose response on mood as that observed in Example 1 (only it is a reversed bell-shape in comparison to Example 1). […] There was an improvement in the mental aggregate scores, relative to placebo, at the 10 mg dose on day 8, and a worsening at the 30 mg and 60 mg doses relative to placebo.

healthy lean males = format: in vivo, human
Procedure: The selection of 25, 50 and 100 μg/kg doses of AOD9604 used in this study was based on the results from a previous Phase I study, conducted from February-June 2001, in healthy lean males using a dose range of 25-400 μg/kg AOD9604.

C57Bl/6J (Ob/Ob) mouse = conditions: Australian patent No. 693478; cited from earlier work
[5] = single iv infusion 25, 50 or 100 μg/kg, only in periods with active drug, none with placebo

Intact growth hormone: intact growth hormone, the full hormone from which the C-terminal fragments derive
effect on mood [1]: positive effects on mood

Tyr-hGH 177-191 [AOD9604]
mean serum NEFA compared to placebo ([2]; 2 hours post dose, all AOD9604 doses (25, 50, 100 μg/kg iv)): rose more | severity of euphoria ([2]; after a single iv dose of active drug): mild to moderate euphoria; also recorded: mild or moderate euphoria | weight loss in older patients compared to placebo ([2]; aged 35+ (N=13), highest dose 100 μg/kg iv): highly significant weight loss | body weight change compared to placebo ([2]; measured 1 week after each iv dose): lower in the treated groups than in those receiving placebo | significance of NEFA effect in older patients ([2]; patients aged 35+, 2 hours post dose): highly significant | subjects experiencing euphoria (number of subjects) [2, 5]: 5/23 | subjects experiencing euphoria (percentage) [2, 5]: 21.7% | mood, Nottingham Health Profile questionnaire, response by dose ([3]; 30 mg single oral dose, lower is happier): greatest response | non-esterified fatty acid (NEFA) levels compared to placebo ([3]; 1, 2 and 4 hours after AOD9604 27.6 mg oral, p<0.05): statistically significantly increased | NEFA response ([3]; AOD9604 55.2 mg oral, compared with 27.6 mg): lower response | mood, Nottingham Health Profile questionnaire ([3]; before dose vs 7 days after dose, all single oral doses (10, 30, 60 mg), placebo worsened): improvement of mood | tolerability ([3]; over the oral dose range 10-60 mg single dose): well tolerated | incidence of adverse events, active vs placebo ([3]; single oral doses): no observable trends | vital signs, ECG, physical examination and clinical laboratory assessments ([3]; single oral doses): no clinically significant changes | gastrointestinal adverse effects ([4]; 60 mg dose group, particularly in the hour after dose): increase in mild gastrointestinal effects | significance of body weight effect in subgroup ([4]; age 35+ and BMI 35+ group, p<0.05): statistically significant | SF-36 mental aggregate relative to placebo, all doses ([4]; at 8 days vs day 0, 10, 30, 60 mg/day oral for 7 days): improvement in the mental aggregate for all doses relative to placebo | significance of SF-36 improvement at 10 mg ([4]; at 8 days, 10 mg/day oral, p<0.05): statistically significant | SF-36 physical aggregate relative to placebo ([4]; at 14 days, dose 60 mg/day, only aggregate/dose worse than placebo): worse result that the placebo | SF-36 mental aggregate scores relative to placebo, 10 mg ([4]; day 8, 10 mg/day oral): improvement | SF-36 mental aggregate scores relative to placebo, 30 mg and 60 mg ([4]; day 8, 30 mg and 60 mg/day oral): worsening | body weight difference (anti-obesity effect) ([4]; morning of day 1 vs day 8, bell-shaped dose response): clear activity | incidence of adverse events, active vs placebo ([4]; multiple oral doses, 7 days): no observable trends | vital signs, ECG, physical examination and clinical laboratory assessments ([4]; multiple oral doses, 7 days): no clinically significant changes | pharmacodynamic response at 50 μg/kg (healthy lean males; 50 μg/kg): a response had been shown | pharmacodynamic response at high dose (healthy lean males; dose increased to 200 μg/kg and higher): response diminished | pharmacodynamic response (healthy lean males; iv dose range 25-400 μg/kg): A pharmacodynamic response was seen

hGH 177-191: synthetic peptide corresponding to amino acid residues 177-191 of the human growth hormone sequence (LRIVQCRSVEGSCGF; UniProt P01241 203-217, looked up, fragment)
body weight gain and adipose tissue mass (C57Bl/6J (Ob/Ob) mouse): reduce body weight gain and adipose tissue mass
